2 molecules from patent US20250249060A1, “APPLICATION METHOD OF ACTIVE PORTION OF LIGUSTICUM CHUANXIONG IN PREPARATION OF ANTI-GOUT DRUG” (Shaanxi University of Chinese Medicine, priority 2024, published 2025) can be followed below.

The target of data set [1] is xanthine oxidase (XOD, or XO) (Homo sapiens, UniProt P47989). Kind of data set: Inhibitory effect of extracts/liquid-liquid extracts on XOD activity in vitro (96-well plate, absorbance at 295 nm). In kind it is biochemical. The conditions noted are these: tested samples as 1 mg/mL solution, allopurinol positive control 2 mg in 1 mL DMSO + 8 mL PBS. The method, then: 2.1 Buffer solution preparation: 0.4780 g of potassium phosphate monobasic (KH2PO4), 3.473 g of dipotassium hydrogen phosphate trihydrate (K2HPO4·3H2O) and 10.00 milligrams (mg) of ethylenediaminetetraacetic acid disodium salt (EDTA-2Na) are accurately weighed, and then placed in a 250 mL volumetric flask, and diluted to volume with distilled water to obtain the buffer solution. 2.2 Substrate preparation: 3.65 mg of xanthine is accurately weighed, and then added into the buffer solution to dilute to volume of 50 mL, and the xanthine is dissolved with ultrasound to obtain the substrate. 2.3 Enzyme solution preparation: XOD (5 units abbreviated as U) is taken and diluted with 50 mL of the buffer solution to obtain a diluted solution, and the diluted solution is subpackaged in sample bottles to obtain the enzyme solution, and kept in a temperature of −70 Celsius degree (° C.) for later use. […] After that the solution is filtered with a microporous filter membrane to obtain the samples to be tested for later use. 2.6 XOD activity determination: […] […] 2.8 A half maximal inhibitory concentration (IC50) value measurement: the active portion is prepared into 7 series concentrations to explore a dose-effect relationship based on results of the activity test, and IC50 value of the active portion is calculated through a GraphPad prism 8 software.
xanthine oxidase (XOD, or XO), sequence (P47989 whole entry, species assumed): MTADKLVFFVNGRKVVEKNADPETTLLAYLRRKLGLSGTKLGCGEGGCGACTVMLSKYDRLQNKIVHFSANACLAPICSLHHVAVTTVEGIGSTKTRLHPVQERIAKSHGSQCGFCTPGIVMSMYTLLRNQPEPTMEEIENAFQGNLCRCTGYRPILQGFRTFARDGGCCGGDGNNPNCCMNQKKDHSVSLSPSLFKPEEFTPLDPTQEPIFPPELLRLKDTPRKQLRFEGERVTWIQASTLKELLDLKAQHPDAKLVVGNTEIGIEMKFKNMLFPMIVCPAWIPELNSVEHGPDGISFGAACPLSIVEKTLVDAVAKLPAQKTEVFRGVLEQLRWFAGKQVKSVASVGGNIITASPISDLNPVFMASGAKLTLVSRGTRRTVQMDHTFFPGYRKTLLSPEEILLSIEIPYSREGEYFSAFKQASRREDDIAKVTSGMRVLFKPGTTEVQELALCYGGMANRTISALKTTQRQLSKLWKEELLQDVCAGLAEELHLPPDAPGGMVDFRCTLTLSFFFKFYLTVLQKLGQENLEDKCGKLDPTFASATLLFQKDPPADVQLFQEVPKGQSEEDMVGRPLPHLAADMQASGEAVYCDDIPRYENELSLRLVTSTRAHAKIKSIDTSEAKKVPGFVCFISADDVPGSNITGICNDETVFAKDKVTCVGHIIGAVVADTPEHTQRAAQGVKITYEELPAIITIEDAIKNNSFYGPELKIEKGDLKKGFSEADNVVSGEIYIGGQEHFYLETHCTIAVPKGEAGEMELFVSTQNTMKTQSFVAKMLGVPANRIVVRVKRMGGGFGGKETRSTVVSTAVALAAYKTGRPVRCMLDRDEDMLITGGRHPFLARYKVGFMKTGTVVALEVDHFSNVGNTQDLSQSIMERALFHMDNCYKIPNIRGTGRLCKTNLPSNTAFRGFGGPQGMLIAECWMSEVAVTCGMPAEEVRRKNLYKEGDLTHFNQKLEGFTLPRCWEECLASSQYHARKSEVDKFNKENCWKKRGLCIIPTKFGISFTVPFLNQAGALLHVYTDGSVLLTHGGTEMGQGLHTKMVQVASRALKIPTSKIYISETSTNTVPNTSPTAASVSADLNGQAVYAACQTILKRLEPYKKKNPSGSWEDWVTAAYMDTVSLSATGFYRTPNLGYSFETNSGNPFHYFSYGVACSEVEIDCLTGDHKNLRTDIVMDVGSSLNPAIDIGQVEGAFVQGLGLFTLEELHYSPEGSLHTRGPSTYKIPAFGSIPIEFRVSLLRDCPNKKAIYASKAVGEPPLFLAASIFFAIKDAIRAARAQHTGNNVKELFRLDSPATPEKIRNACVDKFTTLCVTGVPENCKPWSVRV

Another data set relates to hyperuricemia mice. Description: Serum uric acid level in hyperuricemia mice. In kind it is in vivo. The conditions noted are these: gavage 7 days.
A further data set deals with T1, serum XOD (Rattus norvegicus, UniProt P22985).
T1 construct: The activity of the serum XOD of hyperuricemia in rats is measured by using the colorimetry; from tissue; host or cells: serum of hyperuricemia rats
T1 sequence (P22985 whole entry): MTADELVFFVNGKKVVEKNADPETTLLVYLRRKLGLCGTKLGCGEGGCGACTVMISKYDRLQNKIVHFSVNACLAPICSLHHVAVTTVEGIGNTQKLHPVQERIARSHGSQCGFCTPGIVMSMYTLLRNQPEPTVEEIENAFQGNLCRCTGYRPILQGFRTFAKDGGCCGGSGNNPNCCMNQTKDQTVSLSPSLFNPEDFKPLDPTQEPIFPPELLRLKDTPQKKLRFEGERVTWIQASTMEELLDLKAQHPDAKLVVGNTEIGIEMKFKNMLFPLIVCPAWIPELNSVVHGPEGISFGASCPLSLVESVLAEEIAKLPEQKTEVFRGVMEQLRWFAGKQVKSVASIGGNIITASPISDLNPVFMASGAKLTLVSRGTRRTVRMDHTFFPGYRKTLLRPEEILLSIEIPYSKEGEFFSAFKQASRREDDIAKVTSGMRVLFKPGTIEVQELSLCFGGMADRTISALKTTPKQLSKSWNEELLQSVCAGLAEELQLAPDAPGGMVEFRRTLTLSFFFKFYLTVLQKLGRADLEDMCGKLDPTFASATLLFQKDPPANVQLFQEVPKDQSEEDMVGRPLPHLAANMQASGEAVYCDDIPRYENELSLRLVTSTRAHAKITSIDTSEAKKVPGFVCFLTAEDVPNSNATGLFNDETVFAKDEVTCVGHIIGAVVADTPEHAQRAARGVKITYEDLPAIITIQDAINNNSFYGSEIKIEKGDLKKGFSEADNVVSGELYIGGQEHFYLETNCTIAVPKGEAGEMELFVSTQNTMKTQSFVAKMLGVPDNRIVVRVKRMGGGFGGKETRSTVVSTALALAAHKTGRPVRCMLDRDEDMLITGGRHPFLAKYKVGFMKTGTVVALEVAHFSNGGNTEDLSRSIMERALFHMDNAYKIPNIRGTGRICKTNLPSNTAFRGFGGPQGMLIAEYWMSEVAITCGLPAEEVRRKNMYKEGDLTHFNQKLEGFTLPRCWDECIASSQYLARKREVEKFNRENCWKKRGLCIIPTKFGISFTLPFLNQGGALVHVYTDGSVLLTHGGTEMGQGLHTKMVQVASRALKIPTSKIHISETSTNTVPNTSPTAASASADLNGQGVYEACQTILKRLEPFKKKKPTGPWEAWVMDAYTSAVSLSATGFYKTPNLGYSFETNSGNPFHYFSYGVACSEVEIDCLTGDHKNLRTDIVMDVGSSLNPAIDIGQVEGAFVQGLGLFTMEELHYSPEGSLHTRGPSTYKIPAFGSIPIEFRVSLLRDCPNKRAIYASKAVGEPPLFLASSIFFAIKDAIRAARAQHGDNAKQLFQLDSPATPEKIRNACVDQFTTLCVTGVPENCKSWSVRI
Kind of data set: Serum XOD activity in hyperuricemia rats. The settings on record: model group 30 U/L. In kind it is in vivo.

The test system of data set [2] is acute gouty arthritis mice. Kind of data set: Paw swelling degree in MSU-induced acute gouty arthritis mice. In kind it is in vivo. Here is the method:
Livers of the mice are taken and kept in a temperature of −80° C. for later use. The normal control group of mice is injected with 0.1 mL of physiological saline onto right foot pad of the mice after 1 h gavage on the 7th day. […] 0 h, 4 h, 8 h, 12 h and 24 h after the MSU crystal suspension injection, paw volumes of the mice are measured by using the paw volume measuring instrument, the paw swelling degrees of the mice are calculated, and the calculation formula is as follows: [formula] • where Ct represents a paw volume at different time points after injection, and Co represents a paw volume at 0 h after injection.

The nature of data set [3]: Body weight gain of mice before and after treatment. The conditions noted are these: allopurinol 40 mg/kg·d, colchicine 1 mg/kg·d, extract 500 mg/kg·d.

Turning to `Oc1ncnc2[nH]ncc12` [allopurinol], the “inhibition rate on activity of the XOD” value in data set [1] was determined as 96.78%. Moreover, in the data set with hyperuricemia mice, the “decrease of serum uric acid level compared to the model group” value was 75.16%. The “serum uric acid level” value in the data set with hyperuricemia mice (model 286.82 μmol/L) is 68.72 µmol/L. Further, the “serum XOD activity compared to the model group” value at serum XOD is “significantly decreases”.

In the case of `COc1cc2c(c(OC)c1OC)-c1ccc(OC)c(=O)cc1[C@@H](NC(C)=O)CC2` [colchicine], the “decrease of paw swelling degree compared with the model group” value was 15.32% in data set [2] (24 h after MSU injection); “more than 9%” in data set [2] (at 4 h, 8 h, 12 h and 24 h). Besides, in data set [3], the “weight gain compared to the normal control group” value is “significantly lower”.
